Laboratory results taken from US11219118B2 (Drexel University, priority 2018, dated 2022).

System: CT26 challenge tumors
Test: Anti-tumor vaccination assay (whole-cell vaccine, live CT26 challenge)
Type: in vivo, Balb/c mice
Conditions: challenge tumor at day 26; mice immunized with CT26 cells treated in vitro (plasma 300 mJ or Cisplatin 50 μM 24 hours)
Procedure: To ascertain whether the DAMP signals elicited by plasma could enhance immune responses against cancer, a vaccination assay was performed. […] Cells were prepared for inoculation and injected into the left flank as a whole-cell vaccine to allow an immune response to develop. One week after immunization, mice were challenged with live CT26 cancer cells on the opposite flank and tumor growth was monitored twice a week until day 26 when the study was terminated as a subset of the animals reached IACUC-approved endpoints (FIG. 8A). CT26 cells treated with media only or Cisplatin (50 μM for 24 hours), a non-ICD inducer, [60] were used as controls.
Cisplatin-vaccine was prepared from cells incubated for 24 hours in Cisplatin media. Media-Vaccine was prepared from cells cultured in regular, complete media for 24 hours. Cisplatin- and media-vaccines were used as controls.
After a 24-hour incubation 3×10^6 cells in 100 μL of PBS were inoculated subcutaneously into the left flank of Balb/c mice. Seven days later, mice were challenged with 3×10^5 live CT26 cells subcutaneously injected into the right flank. Tumors were measured twice weekly with calipers and all mice were euthanized on […].

Compound: N.N.[Cl][Pt][Cl] [Cisplatin]
- mean tumor volume: 1041.8±208.3 mm^3
